Measurements taken from ChEMBL document CHEMBL4732231, “Combretastatin A-4 sulfur-containing heterocyclic derivatives: Synthesis, antiproliferative activities and molecular docking studies” (Eur J Med Chem, 2021).
Active and inactive are the calls of the source. The calls are words filed in the database; no cut-off is given here.

Key:
MES-SA/Dx5 = experiment: Antiproliferative activity against multidrug-resistant human MES-SA/Dx5 cells assessed as reduction in cell viability incubated for 72 hrs by prestoblue dye based assay; format: functional; details: MES-SA/Dx5, 72 h
Tubulin = experiment: Inhibition of tubulin polymerization in human HeLa cells assessed as dynamic tyrosinated microtubules content by incubated for 2 hrs by immunofluorescence staining based assay; format: cell-based
RL [1] = experiment: Antiproliferative activity against human RL cells assessed as reduction in cell viability incubated for 72 hrs by MTT assay; format: functional, cell-based
A2780 = experiment: Antiproliferative activity against human A2780 cells assessed as reduction in cell viability incubated for 72 hrs by MTT assay; format: functional, cell-based; details: A2780, 72 h
MIA PaCa-2 = experiment: Antiproliferative activity against human MIA PaCa-2 cells assessed as reduction in cell viability incubated for 72 hrs by MTT assay; format: functional, cell-based; details: MIA PaCa-2, 72 h
Tubulin (Homo sapiens) [2] = biological target: T1, Tubulin (Homo sapiens) (UniProt P68371+Q9H4B7+P0DPH7+P68366+Q13509+Q71U36+P04350+Q3ZCM7+P07437+P68363+Q9BQE3+Q6PEY2+Q13885+Q9BVA1+Q9BUF5); experiment: Inhibition of tubulin polymerization in human HeLa cells assessed as dynamic tyrosinated microtubules content at 14 uM by incubated for 2 hrs by immunofluorescence staining based assay; format: cell-based
Tubulin (Homo sapiens) [3] = biological target: T1, Tubulin (Homo sapiens); experiment: Inhibition of tubulin polymerization in human HeLa cells assessed as dynamic tyrosinated microtubules content at 2 uM by incubated for 2 hrs by immunofluorescence staining based assay; format: cell-based
Tubulin (Homo sapiens) [4] = biological target: T1, Tubulin (Homo sapiens); experiment: Inhibition of tubulin polymerization in human HeLa cells assessed as dynamic tyrosinated microtubules content at 1 uM by incubated for 2 hrs by immunofluorescence staining based assay; format: cell-based
RL [5] = experiment: Induction of cell cycle arrest in human RL cells assessed as increase in accumulation in G2/M phase at 10 nM incubated for 24 hrs by PI staining based flow cytometry analysis (reference value: 23.3 %); format: functional
RL [6] = experiment: Induction of cell cycle arrest in human RL cells assessed as increase in accumulation in subG0/G1 phase at 10 nM incubated for 24 hrs by PI staining based flow cytometry analysis (reference value: 4.5 %); format: functional
RL [7] = experiment: Induction of cell cycle arrest in human RL cells assessed as increase in accumulation in subG0/G1 phase at 10 nM incubated for 48 hrs by PI staining based flow cytometry analysis (reference value: 8 %); format: functional
RL [8] = experiment: Induction of cell death in human RL cells assessed as cell gating level at 1 to 10 nM measured upto 48 hrs by PI staining based flow cytometry analysis (reference value: 80 to 85 %); format: functional; details: dose 1-10 nM, time hrs <=48
RL [9] = experiment: Induction of cell cycle arrest in human RL cells assessed as effect on cell cycle distribution at 1 nM incubated for 48 hrs by PI staining based flow cytometry analysis (reference value: 8 %); format: functional
RL [10] = experiment: Induction of cell cycle arrest in human RL cells assessed as increase in accumulation in subG0/G1 phase at 1 nM incubated for 48 hrs by PI staining based flow cytometry analysis (reference value: 8 %); format: functional

| EC50 (Tubulin) [µM] | IC50 (A2780) [µM] | IC50 (MIA PaCa-2) [µM] | Structure (SMILES) | IC50 (MES-SA/Dx5) [µM] | IC50 (RL [1]) [µM] | also measured |
| --- | --- | --- | --- | --- | --- | --- |
| 0.555 | 0.36 | 0.12 | COc1cc(/C=C\c2sc3ccccc3c2C)cc(OC)c1OC | – | 0.061 | – |
| – | 0.0079 | 0.0078 | COc1cc(/C=C\c2cc3ccccc3s2)cc(OC)c1OC | 0.019 | 0.0076 | – |
| > 10 | > 1 | > 1 | COc1ccsc1/C=C\c1cc(OC)c(OC)c(OC)c1 | – | > 1 | – |
| 0.717 | – | – | COc1cc(/C=C\c2cc3cc(O)ccc3s2)cc(OC)c1OC | – | – | – |
| 0.523 | 0.2 | 0.2 | COc1cc(/C=C\c2cc3cc(F)ccc3s2)cc(OC)c1OC | – | 0.038 | – |

Second part, the compound before the results:

| Structure (SMILES) | EC50 (Tubulin) [µM] | IC50 (A2780) [µM] | IC50 (MIA PaCa-2) [µM] | IC50 (MES-SA/Dx5) [µM] | IC50 (RL [1]) [µM] | also measured |
| --- | --- | --- | --- | --- | --- | --- |
| COc1ccc(/C=C\c2cc(OC)c(OC)c(OC)c2)s1 | – | – | – | 0.075 | – | – |
| COc1cc(C(=O)C(=O)c2cc3ccccc3s2)cc(OC)c1OC | – | – | – | – | – | inhibition (Tubulin (Homo sapiens) [2]): 35% |
| COc1cc(/C=C\c2csc3ccccc23)cc(OC)c1OC | – | – | – | 0.288 | – | – |
| COc1ccc2sc(/C=C\c3cc(OC)c(OC)c(OC)c3)cc2c1 | – | – | – | – | – | inhibition (Tubulin (Homo sapiens) [3]): 62%; inhibition (Tubulin (Homo sapiens) [4]): 14% |
| COc1cc2c(c(OC)c1OC)-c1ccc(OC)c(=O)cc1[C@@H](NC(C)=O)CC2 [COLCHICINE] | – | 0.014 | 0.0061 | 0.757 | 0.0044 | – |
| COc1csc(/C=C\c2cc(OC)c(OC)c(OC)c2)c1 | – | 0.013 | 0.014 | 0.027 | 0.011 | Activity (RL [5]): 48.8%; Activity (RL [6]): 15.6%; Activity (RL [7]): 23.4%; Activity (RL [8]): 45%; Activity (RL [9]): inactive |
| C=C(c1cc(OC)c(OC)c(OC)c1)c1cc2ccccc2s1 | – | – | – | 0.15 | – | – |
| COc1ccc(/C=C\c2cc(OC)c(OC)c(OC)c2)cc1O [COMBRETASTATIN A4] | – | 0.0025 | 0.0021 | 0.003 | 0.0014 | Activity (RL [6]): 19.3%; Activity (RL [7]): 34.9%; Activity (RL [10]): 30.1%; Activity (RL [8]): 45% |
